Laboratory results taken from PubChem BioAssay (NCI).
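Compound exposure: 48 hours, 5 concentrations, 96-well plates. Here, GI50 denotes the concentration required for 50% inhibition of growth. The concentration for full growth arrest is given as TGI.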

Key:
Experiment in all cases: NCI tumour cell line growth inhibition, 48 h
ACHN renal = test system: ACHN renal
UACC-62 melanoma = test system: UACC-62 melanoma
SR leukemia = test system: SR leukemia
LOX IMVI melanoma = test system: LOX IMVI melanoma
SNB-19 CNS = test system: SNB-19 CNS
U251 CNS = test system: U251 CNS
HCC-2998 colon = test system: HCC-2998 colon
UO-31 renal = test system: UO-31 renal
HS 578T breast = test system: HS 578T breast
SW-620 colon = test system: SW-620 colon
NCI-H23 lung = test system: NCI-H23 lung
SNB-75 CNS = test system: SNB-75 CNS
NCI-H522 lung = test system: NCI-H522 lung

SMILES | GI50 (ACHN renal) | TGI (ACHN renal) | TGI (UACC-62 melanoma) | TGI (SR leukemia) | TGI (LOX IMVI melanoma) | TGI (SNB-19 CNS) | TGI (U251 CNS) | GI50 (HCC-2998 colon) | TGI (HCC-2998 colon) | TGI (UO-31 renal) | GI50 (HS 578T breast) | TGI (HS 578T breast) | GI50 (SW-620 colon) | TGI (SW-620 colon) | TGI (NCI-H23 lung) | TGI (SNB-75 CNS) | TGI (NCI-H522 lung)
CCN(CC)C(=S)SS(=O)(=O)c1ccc([N+](=O)[O-])cc1 | 36.5 µM | > 100 µM | > 100 µM | 54.5 µM | 33.8 µM | > 100 µM | 36.7 µM | 93.7 µM | > 100 µM | 47 µM | > 100 µM | > 100 µM | 17.9 µM | 37.1 µM | > 100 µM | – | –
COc1ccc(C(C#N)NNc2nc(C)cc(=O)[nH]2)cc1OC (stereo unspecified) | – | > 100 µM | > 100 µM | > 100 µM | > 100 µM | – | > 100 µM | – | – | > 100 µM | – | – | – | > 100 µM | > 100 µM | > 100 µM | > 100 µM
COC(=O)C1C2C=CC(C2)N1[C@@H](C)c1ccccc1 (stereo partly specified) | – | > 100 µM | > 100 µM | > 100 µM | > 100 µM | > 100 µM | > 100 µM | – | > 100 µM | > 100 µM | – | – | – | > 100 µM | > 100 µM | > 100 µM | > 100 µM
C[Si](C)(OCCS(=O)(=O)O)C1S(=O)(=O)OCCOS1(=O)=O | – | > 100 µM | > 100 µM | > 100 µM | > 100 µM | > 100 µM | > 100 µM | – | > 100 µM | > 100 µM | – | – | – | > 100 µM | > 100 µM | 59.9 µM | > 100 µM
CN(CCc1ccc(N)cc1)[C@H]1CCCC[C@H]1N1CCCC1 | – | > 100 µM | > 100 µM | – | > 100 µM | > 100 µM | > 100 µM | – | > 100 µM | > 100 µM | – | > 100 µM | – | > 100 µM | > 100 µM | > 100 µM | > 100 µM
CCOc1cc(NC(C)=O)ccc1C(=O)NN1C(=O)/C(=C/c2cc(OC)c(OC)c(OC)c2)N=C1c1ccccc1 | – | > 100 µM | > 100 µM | > 100 µM | > 100 µM | > 100 µM | – | – | > 100 µM | > 100 µM | – | > 100 µM | – | > 100 µM | > 100 µM | – | > 100 µM
CC(=O)OC1c2ccccc2CCCCCCC12OCCO2 (stereo unspecified) | – | > 100 µM | > 100 µM | – | > 100 µM | > 100 µM | > 100 µM | – | > 100 µM | > 100 µM | – | – | – | > 100 µM | > 100 µM | > 100 µM | > 100 µM
Cc1ccc2c(n1)C(=O)c1ccccc1C2=O | – | > 100 µM | 43.6 µM | – | 53.1 µM | > 87.9 µM | 97.7 µM | – | > 92.2 µM | > 92.7 µM | – | > 100 µM | – | > 95.4 µM | 38.1 µM | 92.4 µM | 52.4 µM
CN1CN(c2ccccc2)C2(CCN(CCc3csc4ccccc34)CC2)C1=O | – | – | 38 µM | 80.6 µM | 32.8 µM | 93.4 µM | 29.8 µM | – | – | 14.3 µM | – | – | – | 39.3 µM | 42.5 µM | 38.5 µM | 34.4 µM
CCOC(=O)CCC(NC(=O)c1ccc(N2CCN(c3c(C)nc(N)nc3N)CC2)cc1)C(=O)OCC (stereo unspecified) | – | > 100 µM | > 100 µM | – | > 100 µM | > 24.7 µM | > 100 µM | – | > 100 µM | > 100 µM | – | > 100 µM | – | > 100 µM | > 100 µM | > 100 µM | > 100 µM
COC(=O)CCC12CCC(O1)c1ccccc12 (stereo unspecified) | – | > 100 µM | > 100 µM | > 100 µM | > 100 µM | > 100 µM | > 100 µM | – | > 100 µM | > 100 µM | – | – | – | > 100 µM | > 100 µM | > 100 µM | > 100 µM
CC1(C)CC(=O)c2c(nc3ccc4ccccc4c3c2-c2ccc(NC(=O)CCC(=O)Nc3ccc(-c4c5c(nc6ccc7ccccc7c46)CC(C)(C)CC5=O)cc3)cc2)C1 | – | > 100 µM | – | > 100 µM | > 100 µM | > 100 µM | > 100 µM | – | – | > 100 µM | – | > 100 µM | – | > 100 µM | – | > 100 µM | > 100 µM
COc1cc2c(c(OC)c1OC)-c1ccc(SC)cc1[C@H](OC(=O)c1ccccc1)CC2 | – | > 100 µM | > 100 µM | > 100 µM | > 100 µM | – | – | – | 11.7 µM | > 100 µM | – | – | – | > 100 µM | > 100 µM | > 100 µM | –
CC(=O)NC1=C(C)C(=O)c2c(nc3n2CCC3O)C1=N (stereo unspecified) | – | 37.7 µM | 15.5 µM | > 100 µM | 19.2 µM | 50.4 µM | 26.9 µM | – | 45.7 µM | 46.6 µM | – | – | – | 26.4 µM | 29.7 µM | 49.1 µM | 19.6 µM
CNC(=O)c1[nH]cnc1/N=N/N(C)N | – | – | > 100 µM | – | > 100 µM | – | > 100 µM | – | > 100 µM | > 100 µM | – | > 100 µM | – | > 100 µM | > 100 µM | > 100 µM | > 100 µM
CCC1C(c2cc(OC)c(OC)c(OC)c2)c2cc3c(cc2OC1N1CCOCC1)OCO3 (stereo unspecified) | – | 16.1 µM | 24.7 µM | > 100 µM | 10.5 µM | 25 µM | – | – | – | 17.5 µM | – | 28.9 µM | – | 10.3 µM | – | 26.3 µM | 21.8 µM
CNC1=CC(=O)C2=C(C1=O)[C@H]1CC[C@]3(C)C(=O)CC[C@H]3[C@@H]1CC2 | – | 71.4 µM | 31.9 µM | > 60.8 µM | 23.7 µM | 40.8 µM | > 60.2 µM | – | 31.7 µM | 49.2 µM | – | – | – | > 51.6 µM | 19.9 µM | 27.8 µM | –
COc1cc(COC(=O)N2CCC2C(=O)O)c([N+](=O)[O-])cc1OC (stereo unspecified) | – | > 100 µM | > 100 µM | > 100 µM | – | > 100 µM | > 100 µM | – | > 100 µM | > 100 µM | – | > 100 µM | – | > 100 µM | > 100 µM | > 100 µM | –
NC(=O)N1N=C2c3ccccc3SC[C@H]2[C@@H]1c1ccccc1 | – | > 100 µM | – | > 100 µM | 32.4 µM | > 100 µM | 50.4 µM | – | > 100 µM | 82.9 µM | – | – | – | > 100 µM | > 100 µM | – | –
